Source: patent US12662489B2 (Sitryx Therapeutics Limited, priority 2023, dated 2026)

Tests used:
[1] = molecular target: T1, MTHFD1 recombinant human enzyme (Homo sapiens, UniProt P11586); experiment: MTHFD1 inhibition assay (NAD(P)H-Glo luminescence); settings: MTHFD1 IC50, recombinant human enzyme 200 nM, NADP, band
T1 sequence (P11586 2-291 limits assumed): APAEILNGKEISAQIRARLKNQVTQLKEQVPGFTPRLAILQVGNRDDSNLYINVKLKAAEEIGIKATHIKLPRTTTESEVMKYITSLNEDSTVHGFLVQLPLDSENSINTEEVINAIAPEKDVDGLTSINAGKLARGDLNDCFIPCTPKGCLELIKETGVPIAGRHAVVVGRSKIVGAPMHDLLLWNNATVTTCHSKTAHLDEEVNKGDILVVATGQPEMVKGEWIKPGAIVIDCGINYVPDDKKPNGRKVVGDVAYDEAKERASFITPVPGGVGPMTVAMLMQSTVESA

[2] = molecular target: T2, MTHFD2 recombinant human enzyme (Homo sapiens, UniProt P13995); experiment: MTHFD2 inhibition assay (NAD(P)H-Glo luminescence); settings: for MTHFD1/MTHFD2 IC50 ratio: selectivity of MTHFD2 inhibition over MTHFD1, band
T2 sequence (P13995 36-350): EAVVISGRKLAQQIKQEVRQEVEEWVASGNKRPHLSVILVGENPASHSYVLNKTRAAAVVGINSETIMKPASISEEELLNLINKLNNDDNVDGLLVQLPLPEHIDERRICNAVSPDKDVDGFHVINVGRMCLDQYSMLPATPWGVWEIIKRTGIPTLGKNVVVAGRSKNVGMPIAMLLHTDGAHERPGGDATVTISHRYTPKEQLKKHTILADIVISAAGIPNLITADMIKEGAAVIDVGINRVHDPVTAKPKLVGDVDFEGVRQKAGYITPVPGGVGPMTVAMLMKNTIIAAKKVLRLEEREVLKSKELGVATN

For COC[C@H]1CN(c2ccc3c4c(c(=O)oc3c2C)CN(C(=O)c2ccc(C(=O)NS(=O)(=O)C3(C)CC3)c(OC3CCC3)c2)CC4)CCN1C [Example 7, (R)-2-cyclobutoxy-4-(8-(3-(methoxymethyl)-4-methylpiperazin-1-yl)-7-methyl-5-oxo-1,3,4,5-tetrahydro-2H-chromeno[3,4-c]pyridine-3-carbonyl)-N-((1-methylcyclopropyl)sulfonyl)benzamide], the IC50 [1] was 0.01 to 0.1 µM, the IC50 [2] was 0.01 to 0.1 µM and the “MTHFD1/MTHFD2 IC50 ratio” value [2] was “F (<3)”.

With COC[C@H]1CN(c2cc(C)c3c4c(c(=O)oc3c2C)CN(C(=O)c2ccc(C(=O)NS(=O)(=O)N(C)C)c(N3CCC[C@@H]3C)c2)CC4)CCN1C [Example 103, N-(N,N-dimethylsulfamoyl)-4-(8-((R)-3-(methoxymethyl)-4-methylpiperazin-1-yl)-7,10-dimethyl-5-oxo-1,3,4,5-tetrahydro-2H-chromeno[3,4-c]pyridine-3-carbonyl)-2-((S)-2-methylpyrrolidin-1-yl)benzamide] the IC50 [1] was 0.001 to 0.01 µM, the IC50 [2] was 0.001 to 0.01 µM and the “MTHFD1/MTHFD2 IC50 ratio” value [2] was “G (^ 3 to 9.0)”.

With COC[C@H]1CN(c2cc(C)c3c4c(c(=O)oc3c2C)CN(C(=O)c2ccc(C(=O)NS(=O)(=O)N3CCCC3)c(OCCC(F)(F)F)c2F)CC4)CCN1C [Example 222, (R)-3-fluoro-4-(8-(3-(methoxymethyl)-4-methylpiperazin-1-yl)-7,10-dimethyl-5-oxo-1,3,4,5-tetrahydro-2H-chromeno[3,4-c]pyridine-3-carbonyl)-N-(pyrrolidin-1-ylsulfonyl)-2-(3,3,3-trifluoropropoxy)benzamide] the IC50 [1] was 0.01 to 0.1 µM, the IC50 [2] was 0.001 to 0.01 µM and the “MTHFD1/MTHFD2 IC50 ratio” value [2] was “F (<3)”.

With COC[C@H]1CN(c2cc(C)c3c4c(c(=O)oc3c2C)CN(C(=O)c2ccc(C(=O)NS(=O)(=O)C3(C)CC3)c(N3CC5CC5C3)c2)CC4)CCN1C (stereo partly drawn) [Example 46, 2-(3-azabicyclo[3.1.0]hexan-3-yl)-4-(8-((R)-3-(methoxymethyl)-4-methylpiperazin-1-yl)-7,10-dimethyl-5-oxo-1,3,4,5-tetrahydro-2H-chromeno[3,4-c]pyridine-3-carbonyl)-N-((1-methylcyclopropyl)sulfonyl)benzamide] the IC50 [1] was 0.01 to 0.1 µM, the IC50 [2] was 0.001 to 0.01 µM and the “MTHFD1/MTHFD2 IC50 ratio” value [2] was “H (>9.0 to 30)”.

For COC[C@H]1CN(c2ccc3c4c(c(=O)oc3c2C)CN(C(=O)c2cc(OC3CCC3)c(C(=O)NS(=O)(=O)N3CCCC3)c(C(F)(F)F)c2)CC4)CCN1C [Example 133, (R)-2-cyclobutoxy-4-(8-(3-(methoxymethyl)-4-methylpiperazin-1-yl)-7-methyl-5-oxo-1,3,4,5-tetrahydro-2H-chromeno[3,4-c]pyridine-3-carbonyl)-N-(pyrrolidin-1-ylsulfonyl)-6-(trifluoromethyl)benzamide], the IC50 [1] was 0.1 to 1 µM, the IC50 [2] was 0.1 to 1 µM and the “MTHFD1/MTHFD2 IC50 ratio” value [2] was “G (^ 3 to 9.0)”.

In the case of COC[C@H]1CN(c2cc(C)c3c4c(c(=O)oc3c2C)CN(C(=O)c2cc(F)c(C(=O)NS(=O)(=O)N3CCCC3)cc2N(C)C)CC4)CCN1C [Example 243], the IC50 [1] is reported as 1 to 5 µM, the IC50 [2] is reported as 0.01 to 0.1 µM and the “MTHFD1/MTHFD2 IC50 ratio” value [2] is reported as “J (>30)”.

Molecule COC[C@H]1CN(c2cc(C)c3c4c(c(=O)oc3c2C)CN(C(=O)c2ccc(C(=O)NS(=O)(=O)C3(C)CC3)c(N3CCCC(F)(F)C3)c2F)CC4)CCN1C [Example 76, (R)-2-(3,3-difluoropiperidin-1-yl)-3-fluoro-4-(8-(3-(methoxymethyl)-4-methylpiperazin-1-yl)-7,10-dimethyl-5-oxo-1,3,4,5-tetrahydro-2H-chromeno[3,4-c]pyridine-3-carbonyl)-N-((1-methylcyclopropyl)sulfonyl)benzamide] has an IC50 [1] of 0.01 to 0.1 µM and an IC50 [2] of 0.001 to 0.01 µM.

In the case of COC[C@H]1CN(c2cc(C)c3c4c(c(=O)oc3c2C)CN(C(=O)c2ccc(C(=O)NS(=O)(=O)C3(C)CC3)c(O[C@H]3C[C@@H]5C[C@@H]5C3)c2F)CC4)CCN1C [Example 68, 2-(((1R,3s,5S)-bicyclo[3.1.0]hexan-3-yl)oxy)-3-fluoro-4-(8-((R)-3-(methoxymethyl)-4-methylpiperazin-1-yl)-7,10-dimethyl-5-oxo-1,3,4,5-tetrahydro-2H-chromeno[3,4-c]pyridine-3-carbonyl)-N-((1-methylcyclopropyl)sulfonyl)benzamide], the IC50 [1] is reported as 0.001 to 0.01 µM, the IC50 [2] is reported as 0.001 to 0.01 µM and the “MTHFD1/MTHFD2 IC50 ratio” value [2] is reported as “F (<3)”.

With COC[C@H]1CN(c2ccc3c4c(c(=O)oc3c2C)CN(C(=O)c2cc(Cl)c(C(=O)NS(=O)(=O)C3(C)CC3)c(N3C5CCC3CC5)c2)CC4)CCN1C [Example 40, (R)-2-(7-azabicyclo[2.2.1]heptan-7-yl)-6-chloro-4-(8-(3-(methoxymethyl)-4-methylpiperazin-1-yl)-7-methyl-5-oxo-1,3,4,5-tetrahydro-2H-chromeno[3,4-c]pyridine-3-carbonyl)-N-((1-methylcyclopropyl)sulfonyl)benzamide] the IC50 [1] was 0.01 to 0.1 µM, the IC50 [2] was 0.001 to 0.01 µM and the “MTHFD1/MTHFD2 IC50 ratio” value [2] was “H (>9.0 to 30)”.

With CCOc1cc(C(=O)N2CCc3c(c(=O)oc4c(C)c(N5CCN(C)[C@@H](COC)C5)cc(Cl)c34)C2)c(F)cc1C(=O)NS(=O)(=O)N(C)C1CC1 [Example 298, (R)-4-(10-chloro-8-(3-(methoxymethyl)-4-methylpiperazin-1-yl)-7-methyl-5-oxo-1,3,4,5-tetrahydro-2H-chromeno[3,4-c]pyridine-3-carbonyl)-N-(N-cyclopropyl-N-methylsulfamoyl)-2-ethoxy-5-fluorobenzamide] the IC50 [1] was 0.1 to 1 µM, the IC50 [2] was 0.01 to 0.1 µM and the “MTHFD1/MTHFD2 IC50 ratio” value [2] was “G (^ 3 to 9.0)”.

With COC[C@H]1CN(c2cc(C)c3c4c(c(=O)oc3c2C)CN(C(=O)c2cc(C(=O)NS(=O)(=O)N3CCCC3)c3c(c2F)OC2(CCC2)O3)CC4)CCN1C [Example 168, (R)-4-fluoro-5-(8-(3-(methoxymethyl)-4-methylpiperazin-1-yl)-7,10-dimethyl-5-oxo-1,3,4,5-tetrahydro-2H-chromeno[3,4-c]pyridine-3-carbonyl)-N-(pyrrolidin-1-ylsulfonyl)spiro[benzo[d][1,3]dioxole-2,1′-cyclobutane]-7-carboxamide] the IC50 [1] was over 5 µM, the IC50 [2] was 1 to 5 µM and the “MTHFD1/MTHFD2 IC50 ratio” value [2] was “F (<3)”.

With COC[C@H]1CN(c2cc(C)c3c4c(c(=O)oc3c2C)CN(C(=O)c2ccc(C(=O)NS(=O)(=O)C3(C)CC3)c(OC3CCC3)c2C)CC4)CCN1C [Example 180, (R)-2-cyclobutoxy-4-(8-(3-(methoxymethyl)-4-methylpiperazin-1-yl)-7,10-dimethyl-5-oxo-1,3,4,5-tetrahydro-2H-chromeno[3,4-c]pyridine-3-carbonyl)-3-methyl-N-((1-methylcyclopropyl)sulfonyl)benzamide] the IC50 [1] was 0.1 to 1 µM, the IC50 [2] was 0.01 to 0.1 µM and the “MTHFD1/MTHFD2 IC50 ratio” value [2] was “G (^ 3 to 9.0)”.

With Cc1c(N2CCN3CCOC[C@H]3C2)ccc2c3c(c(=O)oc12)CN(C(=O)c1ccc(C(=O)NS(=O)(=O)N2CCCC2)c(OC2CCC2)c1)CC3 [Example 19, (R)-2-cyclobutoxy-4-(8-(hexahydropyrazino[2,1-c][1,4]oxazin-8(1H)-yl)-7-methyl-5-oxo-1,3,4,5-tetrahydro-2H-chromeno[3,4-c]pyridine-3-carbonyl)-N-(pyrrolidin-1-ylsulfonyl)benzamide] the IC50 [1] was 0.1 to 1 µM, the IC50 [2] was 0.1 to 1 µM and the “MTHFD1/MTHFD2 IC50 ratio” value [2] was “F (<3)”.

For COC[C@H]1CN(c2ccc3c4c(c(=O)oc3c2Cl)CN(C(=O)c2ccc(C(=O)NS(=O)(=O)N3CCCC3)c(OC3CCC3)c2F)CC4)CCN1C [Example 53, (R)-4-(7-chloro-8-(3-(methoxymethyl)-4-methylpiperazin-1-yl)-5-oxo-1,3,4,5-tetrahydro-2H-chromeno[3,4-c]pyridine-3-carbonyl)-2-cyclobutoxy-3-fluoro-N-(pyrrolidin-1-ylsulfonyl)benzamide], the IC50 [1] was 0.001 to 0.01 µM, the IC50 [2] was 0.01 to 0.1 µM and the “MTHFD1/MTHFD2 IC50 ratio” value [2] was “F (<3)”.

COC[C@H]1CN(c2ccc3c4c(c(=O)oc3c2C)CN(C(=O)c2cc(N(C)C)c(C(=O)NS(=O)(=O)N3CCC5(CC3)CC5)cc2F)CC4)CCN1C [Example 189, (R)-N-((6-azaspiro[2.5]octan-6-yl)sulfonyl)-2-(dimethylamino)-5-fluoro-4-(8-(3-(methoxymethyl)-4-methylpiperazin-1-yl)-7-methyl-5-oxo-1,3,4,5-tetrahydro-2H-chromeno[3,4-c]pyridine-3-carbonyl)benzamide] was tested, and the IC50 [1] was 1 to 5 µM, the IC50 [2] was 0.1 to 1 µM and the “MTHFD1/MTHFD2 IC50 ratio” value [2] was “H (>9.0 to 30)”.

For COC[C@H]1CN(c2ccc3c4c(c(=O)oc3c2C)CN(C(=O)c2cc(OC3CCCC3)c(C(=O)NS(=O)(=O)C3(C)CC3)c(C(F)(F)F)c2)CC4)CCN1C [Example 101, (R)-2-(cyclopentyloxy)-4-(8-(3-(methoxymethyl)-4-methylpiperazin-1-yl)-7-methyl-5-oxo-1,3,4,5-tetrahydro-2H-chromeno[3,4-c]pyridine-3-carbonyl)-N-((1-methylcyclopropyl)sulfonyl)-6-(trifluoromethyl)benzamide], the IC50 [1] was 1 to 5 µM, the IC50 [2] was 0.1 to 1 µM and the “MTHFD1/MTHFD2 IC50 ratio” value [2] was “H (>9.0 to 30)”.
